In patent US12122778B2, “Activating pyruvate kinase R” (Novo Nordisk Health Care AG, priority 2018, dated 2024):

Molecular target: PKR(wt) (Homo sapiens, UniProt P30613)
Assay: Luminescence Biochemical Assay (Kinase Glo Plus), wild type PKR
Conditions: without FBP; for activation at 1.54 µM: 1.54 μM compound, read-out: AC50 LUM KGP woFBP % Fold@1.54 μM mean; for AC50: read-out: AC50 LUM KGP woFBP AC50 μM gmean; for Emax: read-out: AC50 LUM KGP woFBP MAX % FOLD mean
Description: In some embodiments, a PKR Activating Compound can have: (1) an AC50 value of less than 0.1 μM (e.g., compounds with AC50 values of “+++” in Table 13), 0.1-1.0 μM (e.g., compounds with AC50 values of “++” in Table 13), or 1.01-40 μM (e.g., compounds with AC50 values of “+” in Table 13); (2) a MAX % Fold of 75%-250%, 250-500%, or 75%-500%; and/or (3) a % Fold@1.54 μM of 75%-250%, 250-500%, or 75%-500%. In some embodiments, a PKR Activating Compound has (1) an AC50 value of less than 1.0 μM; (2) a MAX % Fold of 75%-500%; and/or (3) a % Fold@1.54 μM of 75%-500%.
The phosphorylation of Adenosine-5′-diphosphate (ADP) by various mutants of PKR was determined by the Kinase Glo Plus Assay (Promega) in the presence or absence of FBP [D-Fructose-1,6-diphosphate; BOC Sciences, CAS: 81028-91-3] as follows. Unless otherwise indicated, all reagents were purchased from Sigma-Aldrich. All reagents were prepared in buffer containing 50 mM Tris-HCl, 100 mM KCl, 5 mM MgCl2, and 0.01% Triton X100, 0.03% BSA, and 1 mM DTT. Enzyme and PEP [Phospho(enol) pyruvic acid] were added at 2× to all wells of an assay-ready plate containing serial dilutions of test compounds or DMSO vehicle. Final enzyme concentrations for PKR(wt), PKR(R510Q), and PKR(G332S) were 0.8 nM, 0.8 nM, and 10 nM respectively. Final PEP concentration was 100 μM. The Enzyme/PEP mixture was incubated with compounds for 30 minutes at RT before the assay was initiated with the addition of 2×ADP [Adenosine-5′-diphosphate] and KinaseGloPlus. Final concentration of ADP was 100 μM. […] For assays containing FBP, that reagent is added at 30 μM upon reaction initiation. Reactions were allowed to progress for 45 minutes at RT until luminescence was recorded by the BMG PHERAstar FS Multilabel Reader. All compounds were tested in triplicate at concentrations ranging from 42.5 μM to 2.2 nM in 0.83% DMSO.
Luminescence values were converted to % Fold increase by normalizing to the average of the DMSO control and multiplying by 100. Max, min, slope and AC50 were determined by the standard four parameter fit algorithm of ActivityBase XE Runner. Compounds were evaluated with three parameters—AC50, MAX % Fold, and % Fold@1.54 μM (FIG. 1). The AC50 value for a compound is the concentration (μM) corresponding to the midway between the maximum and minimum values of the four parameter logistic curve fit (i.e., at which the % fold increase along the four parameter logistic curve fit is halfway between MAX % Fold and MIN % Fold (% Fold Midpoint)), MAX % Fold is the highest fold increase observed at any concentration of compound, and % Fold@1.54 μM is the fold increase at a compound concentration of 1.54 μM. The parameter % Fold@1.54 μM was selected to capture elements of both the AC50 and MAX % Fold and to provide a ranking based on both potency and effect. The compound concentration of 1.54 μM was chosen as one that can optimally differentiate the set of compounds based on the range of activities observed.
As set forth in Table 13 below, AC50 values (columns A, D, G) are defined as follows: ≤0.1 μM (+++); >0.1 μM and ≤1.0 μM (++); >1.0 μM and ≤40 μM (+); >40 μM (0). Max % FOLD values (columns B, E, H) are defined as follows: ≤75% (+); >75% and ≤250% (++); >250% and ≤500% (+++). % Fold@1.54 μM values (columns C, F, J) are defined as follows: ≤75% (+); >75% and ≤250% (++); >250% and ≤50000 (+++).

PKR(wt), sequence (P30613 whole entry): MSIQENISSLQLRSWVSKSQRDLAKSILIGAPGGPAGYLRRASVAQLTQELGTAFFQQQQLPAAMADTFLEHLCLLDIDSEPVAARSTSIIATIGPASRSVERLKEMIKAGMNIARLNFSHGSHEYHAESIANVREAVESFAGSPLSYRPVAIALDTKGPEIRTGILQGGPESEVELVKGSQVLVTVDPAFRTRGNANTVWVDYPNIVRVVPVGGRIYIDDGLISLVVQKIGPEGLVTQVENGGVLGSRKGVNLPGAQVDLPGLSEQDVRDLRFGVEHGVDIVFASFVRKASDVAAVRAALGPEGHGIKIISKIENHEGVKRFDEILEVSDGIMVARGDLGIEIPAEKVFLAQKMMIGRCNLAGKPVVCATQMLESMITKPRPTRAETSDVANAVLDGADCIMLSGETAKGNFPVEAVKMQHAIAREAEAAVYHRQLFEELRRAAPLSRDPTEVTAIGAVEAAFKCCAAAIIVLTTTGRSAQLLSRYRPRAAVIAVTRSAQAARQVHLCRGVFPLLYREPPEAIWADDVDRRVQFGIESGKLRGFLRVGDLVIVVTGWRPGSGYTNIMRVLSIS

Compound | activation at 1.54 µM [%] | AC50 [µM] | Emax [%]
O=C(NCc1ccco1)N1CC2=C(C1)CN(S(=O)(=O)c1ccc3ncsc3c1)C2 [Example 21-1, 5-(Benzo[d]thiazol-6-ylsulfonyl)-N-(furan-2-ylmethyl)-3,4,5,6-tetrahydropyrrolo[3,4-c]pyrrole-2(1H)-carboxamide] | 250 to 50000 | ≤ 0.1 | 250 to 500
CN(C)CCC(=O)N1CC2=C(C1)CN(S(=O)(=O)c1ccc3occc3c1)C2 [Example 1-5, 1-(5-(Benzofuran-5-ylsulfonyl)-3,4,5,6-tetrahydropyrrolo[3,4-c]pyrrol-2(1H)-yl)-3-(dimethylamino)propan-1-one] | 75 to 250 | 1 to 40 | 75 to 250
COc1ccc(CNC(=O)N2CC3=C(C2)CN(S(=O)(=O)c2cccnc2)C3)cc1 [Example 20-2, N-[(4-methoxyphenyl)methyl]-5-(pyridine-3-sulfonyl)-1H,2H,3H,4H,5H,6H-pyrrolo[3,4-c]pyrrole-2-carboxamide] | 75 to 250 | 0.1 to 1 | 250 to 500
NS(=O)(=O)c1ccc(S(=O)(=O)N2CC3=C(CN(C(=O)[C@H](O)c4ccccc4)C3)C2)cc1 [Example 13-1, (R)-4-((5-(2-hydroxy-2-phenylacetyl)-3,4,5,6-tetrahydropyrrolo[3,4-c]pyrrol-2(1H)-yl)sulfonyl)benzenesulfonamide] | 75 to 250 | 1 to 40 | 75 to 250
CN1CCOc2ccc(S(=O)(=O)N3CC4=C(CN(C(=O)C5CCCC5)C4)C3)cc21 [Example 18-78, 6-({5-Cyclopentanecarbonyl-1H,2H,3H,4H,5H,6H-pyrrolo[3,4-c]pyrrol-2-yl}sulfonyl)-4-methyl-3,4-dihydro-2H-1,4-benzoxazine] | 75 to 250 | 1 to 40 | 75 to 250
O=C(c1cnc(C(F)(F)F)nc1)N1CC2=C(C1)CN(S(=O)(=O)c1ccc3occc3c1)C2 [Example 18-86, 5-[5-(1-Benzofuran-5-sulfonyl)-1H,2H,3H,4H,5H,6H-pyrrolo[3,4-c]pyrrole-2-carbonyl]-2-(trifluoromethyl)pyrimidine] | 75 to 250 | 1 to 40 | 75 to 250
O=C(NCc1cccnc1)N1CC2=C(C1)CN(S(=O)(=O)c1ccc3occc3c1)C2 [Example 3-4, 5-(Benzofuran-5-ylsulfonyl)-N-(pyridin-3-ylmethyl)-3,4,5,6-tetrahydropyrrolo[3,4-c]pyrrole-2(1H)-carboxamide] | 75 to 250 | 0.1 to 1 | 75 to 250
CS(=O)(=O)NCC(=O)N1CC2=C(C1)CN(S(=O)(=O)c1ccc3occc3c1)C2 [Example 1-1, N-(2-(5-(benzofuran-5-ylsulfonyl)-3,4,5,6-tetrahydropyrrolo[3,4-c]pyrrol-2(1H)-yl)-2-oxoethyl)methanesulfonamide] | 75 to 250 | 0.1 to 1 | 75 to 250
O=C(NCC1CCOC1)N1CC2=C(C1)CN(S(=O)(=O)c1ccc3occc3c1)C2 (stereo not drawn) [Example 3-5, 5-(Benzofuran-5-ylsulfonyl)-N-((tetrahydrofuran-3-yl)methyl)-3,4,5,6-tetrahydropyrrolo[3,4-c]pyrrole-2(1H)-carboxamide] | 75 to 250 | 1 to 40 | 75 to 250
Cc1ccc(C(C)NC(=O)N2CC3=C(C2)CN(S(=O)(=O)c2ccc(OC(F)F)cc2)C3)o1 (stereo not drawn) [Example 21-3, 5-[4-(Difluoromethoxy)benzenesulfonyl]-N-[1-(5-methylfuran-2-yl)ethyl]-1H,2H,3H,4H,5H,6H-pyrrolo[3,4-c]pyrrole-2-carboxamide] | 75 to 250 | 1 to 40 | 250 to 500
O=C(c1csc(Nc2cccnc2)n1)N1CC2=C(C1)CN(S(=O)(=O)c1ccc3occc3c1)C2 [Example 18-79, N-{4-[5-(1-benzofuran-5-sulfonyl)-1H,2H,3H,4H,5H,6H-pyrrolo[3,4-c]pyrrole-2-carbonyl]-1,3-thiazol-2-yl}pyridin-3-amine] | 250 to 50000 | 0.1 to 1 | 250 to 500
Cc1cc(C(C)NC(=O)N2CC3=C(C2)CN(S(=O)(=O)c2ccc(OC(F)F)cc2)C3)c(C)o1 (stereo not drawn) [Example 21-4, 5-[4-(Difluoromethoxy)benzenesulfonyl]-N-[1-(2,5-dimethylfuran-3-yl)ethyl]-1H,2H,3H,4H,5H,6H-pyrrolo[3,4-c]pyrrole-2-carboxamide] | 75 to 250 | 1 to 40 | 250 to 500
O=C(NCC1CCCO1)N1CC2=C(C1)CN(S(=O)(=O)c1ccc3occc3c1)C2 (stereo not drawn) [Example 3-1, 5-(Benzofuran-5-ylsulfonyl)-N-((tetrahydrofuran-2-yl)methyl)-3,4,5,6-tetrahydropyrrolo[3,4-c]pyrrole-2(1H)-carboxamide] | 75 to 250 | 0.1 to 1 | 75 to 250
O=C([C@H](O)c1ccccc1)N1CC2=C(C1)CN(S(=O)(=O)c1ccccc1OC(F)(F)F)C2 [Example 18-46, (2R)-2-hydroxy-2-phenyl-1-{5-[2-(trifluoromethoxy)benzenesulfonyl]-1H,2H,3H,4H,5H,6H-pyrrolo[3,4-c]pyrrol-2-yl}ethan-1-one] | 75 to 250 | 1 to 40 | 75 to 250
O=C(NC1CCOC1)N1CC2=C(C1)CN(S(=O)(=O)c1ccc3occc3c1)C2 (stereo not drawn) [Example 3-2, 5-(Benzofuran-5-ylsulfonyl)-N-(tetrahydrofuran-3-yl)-3,4,5,6-tetrahydropyrrolo[3,4-c]pyrrole-2(1H)-carboxamide] | 75 to 250 | 0.1 to 1 | 250 to 500
O=C(OCc1cccc(F)c1)N1CC2=C(C1)CN(S(=O)(=O)c1ccc3occc3c1)C2 [Example 22-6, (3-Fluorophenyl)methyl 5-(1-benzofuran-5-sulfonyl)-1H,2H,3H,4H,5H,6H-pyrrolo[3,4-c]pyrrole-2-carboxylate] | 250 to 50000 | 0.1 to 1 | 250 to 500
O=C(N1CC2=C(C1)CN(S(=O)(=O)c1ccc3occc3c1)C2)C1(O)CC1 [Example 1-4, (5-(Benzofuran-5-ylsulfonyl)-3,4,5,6-tetrahydropyrrolo[3,4-c]pyrrol-2(1H)-yl)(1-hydroxycyclopropyl)methanone] | 75 to 250 | 0.1 to 1 | 250 to 500
Cc1ccc(C(C)NC(=O)N2CC3=C(C2)CN(S(=O)(=O)c2ccc(OC(F)F)cc2)C3)s1 (stereo not drawn) [Example 21-7, 5-[4-(Difluoromethoxy)benzenesulfonyl]-N-[1-(5-methylthiophen-2-yl)ethyl]-1H,2H,3H,4H,5H,6H-pyrrolo[3,4-c]pyrrole-2-carboxamide] | 75 to 250 | 1 to 40 | 250 to 500
CC(C)(O)C(=O)N1CC2=C(C1)CN(S(=O)(=O)c1ccc3occc3c1)C2 [Example 1-3, 1-(5-(Benzofuran-5-ylsulfonyl)-3,4,5,6-tetrahydropyrrolo[3,4-c]pyrrol-2(1H)-yl)-2-hydroxy-2-methylpropan-1-one] | 75 to 250 | 0.1 to 1 | 250 to 500
O=C(NCc1ccco1)N1CC2=C(C1)CN(S(=O)(=O)c1ccc(OC(F)F)cc1)C2 [Example 21-2, 5-[4-(Difluoromethoxy)benzenesulfonyl]-N-(furan-2-ylmethyl)-1H,2H,3H,4H,5H,6H-pyrrolo[3,4-c]pyrrole-2-carboxamide] | 250 to 50000 | ≤ 0.1 | 250 to 500
